Assay results taken from patent US4532258A, “Certain cyclopropane carboxylic acid esters and their pesticidal use” (priority 1979, dated 1985).
≈ marks a conversion by molar mass, not a printed value.

Key:
Fish toxicity test = format: in vivo; settings: guppy, water, female guppies, 20° C., 50% killed, read-out: TLm (medium tolerance limit)
Method: The mixture was stirred well to prepare a test water. Ten female guppies from 3 to 4 months of age were released into the test water and maintained at 20° C. The concentration of the test compound at which 50% of the guppies were killed during the ensuring 48 hours was determined. [This concentration is referred to as TLm (medium tolerance limit, ppm)].

[1] = Light stability test (residue after exposure to ultraviolet light); format: physicochemical; settings: UV 3600 Å, 31°-35° C.
Method: Into 2.0 ml of acetone were dissolved 80 mg of each test compound. A 5 μl portion of the solution was taken and spread on a glass plate (Micro Standard Cover Glass, 18 m/m No. 1, 200 pcs, Matsunami Glass Ind., Ltd.) and the acetone was evaporated. The specimen was exposed to ultraviolet light from a fluorescent lamp (Tokyo Shibaura Electric Co., Ltd., FL20BL, glow-type, 100 V, 24.5 W, wavelength=3600 Å) which was fixed just above the specimen at a distance of 11 cm at a temperature of 31°-35° C. for a predetermined exposure time. The test liquid was washed away with 1.0 ml of methanol containing 0.04% of dioctyl phthalate as an internal reference and high-speed liquid chromatography was carried out on the washings to determine the residual amount of the test compound.

Row | SMILES | LC50 at 48 h (Fish toxicity test) [µg/mL] | Residue (%) ([1]; exposure time 3.5 hrs.) | Residue (%) ([1]; exposure time 3 days) | Residue (%) ([1]; exposure time 5 days)
1 | CC1(C)[C@H](CC(Cl)(Cl)Cl)[C@H]1C(=O)OC(C#N)c1cccc(Oc2ccccc2)c1 (relative stereo) [(7) [Trans-isomer]] | 0.5 to 10 (≈ 1.1 to 22.1 µM) | – | – | –
2 | C#CC(OC(=O)[C@@H]1[C@@H](CC(Cl)(Cl)Cl)C1(C)C)c1cccc(Oc2ccccc2)c1 (relative stereo) [(11) [Trans-isomer]] | ≥ 10 | – | – | –
3 | C#CC(OC(=O)[C@@H]1[C@H](CC(C)(Cl)Cl)C1(C)C)c1cccc(Oc2ccccc2)c1 (relative stereo) [(13) [Cis-isomer]] | ≥ 10 | – | – | –
4 | CC1(C)[C@H](C(=O)OC(C(N)=S)c2cccc(Oc3ccccc3)c2)[C@@H]1CC(Cl)(Cl)Cl (relative stereo) [(27) [Cis-isomer]] | ≥ 10 | – | – | –
5 | CC1(C)C(CC(Cl)(Cl)Cl)C1C(=O)OC(C#N)c1cccc(OC=C(Cl)Cl)c1 (stereo not drawn) [(34) [Mixture]] | – | 100 | 88 | 44
6 | C=CCC1=C(C)C(OC(=O)C2C(C=C(C)C)C2(C)C)CC1=O (stereo not drawn) [Allethrin, reference compound] | – | 14 | 0 | –
